According to patent US20230398130A1, “METHODS AND COMPOSITIONS FOR DIFFERENTIATING STEM CELLS” (Massachusetts Institute of Technology, priority 2020, published 2023):

Tests used:
ISC-enriched organoids [1] = test: Primary screen, 384-well 2.5-D organoid differentiation (ENR+CD, 6 days): basal lysozyme secretion (LYZ.NS); format: cell-based, murine; conditions: for Dose.FC.LYZ.NS: FC vs plate median; for SSMD.LYZ.NS: strictly standardized mean difference
Description: (§1) High-throughput screening.

ISC-enriched organoids [2] = test: Primary screen, 384-well 2.5-D organoid differentiation (ENR+CD, 6 days, Target Selective Inhibitor Library, vs whole-plate median): ATP (CellTiter-Glo 3D, CTG); conditions: for Dose.FC.CTG: FC vs plate median; for SSMD.CTG: strictly standardized mean difference
ISC-enriched organoids [3] = test: Primary screen, 384-well 2.5-D organoid differentiation (ENR+CD, 6 days): carbachol-induced lysozyme secretion (LYZ.S); format: cell-based, murine; conditions: for Dose.FC.LYZ.S: FC vs plate median; for Z.LYZ.S: standard z score; for SSMD.LYZ.S: strictly standardized mean difference
Description: as §1

[4] = Dose 0.08 uM, primary screen, standard z score
[5] = Dose 0.40 uM, primary screen, standard z score
[6] = Dose 2.00 uM, primary screen, standard z score
[7] = Dose 10.00 uM, primary screen, standard z score
[8] = primary screen, 1st of the 4 dose lines of the treatment (dose not given)
[9] = primary screen, 2nd of the 4 dose lines of the treatment (dose not given)
[10] = primary screen, 3rd of the 4 dose lines of the treatment (dose not given)
[11] = primary screen, 4th of the 4 dose lines of the treatment (dose not given)
[12] = Dose 0.08 uM, standard z score of FC
[13] = Dose 0.40 uM, standard z score of FC
[14] = Dose 2.00 uM, standard z score of FC
[15] = Dose 10.00 uM, standard z score of FC

COc1cc(-c2ncn(/C=C\C(=O)OC(C)C)n2)cc(C(F)(F)F)c1 [KPT-185]
Dose.FC.LYZ.NS (ISC-enriched organoids [1]; Dose 0.08 uM, primary screen): −0.006 log 2 fold change
Z.LYZ.NS (ISC-enriched organoids [1]; [4]): −0.049
Dose.FC.LYZ.NS (ISC-enriched organoids [1]; Dose 0.40 uM, primary screen): 0.097 log 2 fold change
Z.LYZ.NS (ISC-enriched organoids [1]; [5]): 0.846
Dose.FC.LYZ.NS (ISC-enriched organoids [1]; Dose 2.00 uM, primary screen): −0.209 log 2 fold change
Z.LYZ.NS (ISC-enriched organoids [1]; [6]): −1.820
Dose.FC.LYZ.NS (ISC-enriched organoids [1]; Dose 10.00 uM, primary screen): −0.085 log 2 fold change
Z.LYZ.NS (ISC-enriched organoids [1]; [7]): −0.744
SSMD.LYZ.NS (ISC-enriched organoids [1]; [8]): −0.049
SSMD.LYZ.NS (ISC-enriched organoids [1]; [9]): 0.872
SSMD.LYZ.NS (ISC-enriched organoids [1]; [10]): −1.718
SSMD.LYZ.NS (ISC-enriched organoids [1]; [11]): −0.298
Dose.FC.CTG (ISC-enriched organoids [2]; Dose 0.08 uM, primary screen): 0.116 log 2 fold change
Z.CTG (ISC-enriched organoids [2]; [4]): 0.277
Dose.FC.CTG (ISC-enriched organoids [2]; Dose 0.40 uM, primary screen): 0.104 log 2 fold change
Z.CTG (ISC-enriched organoids [2]; [5]): 0.248
Dose.FC.CTG (ISC-enriched organoids [2]; Dose 2.00 uM, primary screen): −0.995 log 2 fold change
Z.CTG (ISC-enriched organoids [2]; [6]): −2.377
Dose.FC.CTG (ISC-enriched organoids [2]; Dose 10.00 uM, primary screen): −0.855 log 2 fold change
Z.CTG (ISC-enriched organoids [2]; [7]): −2.041
SSMD.CTG (ISC-enriched organoids [2]; [8]): 0.296
SSMD.CTG (ISC-enriched organoids [2]; [9]): 0.270
SSMD.CTG (ISC-enriched organoids [2]; [10]): −1.033
SSMD.CTG (ISC-enriched organoids [2]; [11]): −0.723
Dose.FC.LYZ.S (ISC-enriched organoids [3]; Dose 0.08 uM, primary screen): −0.015 log 2 fold change
Dose.FC.LYZ.S (ISC-enriched organoids [3]; Dose 0.40 uM, primary screen): 0.220 log 2 fold change
Dose.FC.LYZ.S (ISC-enriched organoids [3]; Dose 2.00 uM, primary screen): −0.322 log 2 fold change
Dose.FC.LYZ.S (ISC-enriched organoids [3]; Dose 10.00 uM, primary screen): −0.153 log 2 fold change
Z.LYZ.S (ISC-enriched organoids [3]; [8]): −0.096
Z.LYZ.S (ISC-enriched organoids [3]; [9]): 1.420
Z.LYZ.S (ISC-enriched organoids [3]; [10]): −2.085
Z.LYZ.S (ISC-enriched organoids [3]; [11]): −0.989
SSMD.LYZ.S (ISC-enriched organoids [3]; [8]): −0.092
SSMD.LYZ.S (ISC-enriched organoids [3]; [9]): 0.978
SSMD.LYZ.S (ISC-enriched organoids [3]; [10]): −1.455
SSMD.LYZ.S (ISC-enriched organoids [3]; [11]): −0.431

Cc1cccc(-c2nn3c(c2-c2ccnc4ccc(C(N)=O)cc24)CCC3)n1 [LY2157299]
Dose.FC.LYZ.NS (ISC-enriched organoids [1]; Dose 0.08 uM, primary screen): 0.227 log 2 fold change
Z.LYZ.NS (ISC-enriched organoids [1]; [4]): 1.973
Dose.FC.LYZ.NS (ISC-enriched organoids [1]; Dose 0.40 uM, primary screen): 0.140 log 2 fold change
Z.LYZ.NS (ISC-enriched organoids [1]; [5]): 1.221
Dose.FC.LYZ.NS (ISC-enriched organoids [1]; Dose 2.00 uM, primary screen): 0.092 log 2 fold change
Z.LYZ.NS (ISC-enriched organoids [1]; [6]): 0.799
Dose.FC.LYZ.NS (ISC-enriched organoids [1]; Dose 10.00 uM, primary screen): 0.162 log 2 fold change
Z.LYZ.NS (ISC-enriched organoids [1]; [7]): 1.408
SSMD.LYZ.NS (ISC-enriched organoids [1]; [8]): 0.656
SSMD.LYZ.NS (ISC-enriched organoids [1]; [9]): 0.737
SSMD.LYZ.NS (ISC-enriched organoids [1]; [10]): 0.827
SSMD.LYZ.NS (ISC-enriched organoids [1]; [11]): 1.243
Dose.FC.CTG (ISC-enriched organoids [2]; Dose 0.08 uM, primary screen): 0.091 log 2 fold change
Z.CTG (ISC-enriched organoids [2]; [4]): 0.218
Dose.FC.CTG (ISC-enriched organoids [2]; Dose 0.40 uM, primary screen): 0.137 log 2 fold change
Z.CTG (ISC-enriched organoids [2]; [5]): 0.328
Dose.FC.CTG (ISC-enriched organoids [2]; Dose 2.00 uM, primary screen): 0.017 log 2 fold change
Z.CTG (ISC-enriched organoids [2]; [6]): 0.041
Dose.FC.CTG (ISC-enriched organoids [2]; Dose 10.00 uM, primary screen): 0.095 log 2 fold change
Z.CTG (ISC-enriched organoids [2]; [7]): 0.226
SSMD.CTG (ISC-enriched organoids [2]; [8]): 0.343
SSMD.CTG (ISC-enriched organoids [2]; [9]): 0.369
SSMD.CTG (ISC-enriched organoids [2]; [10]): 0.048
SSMD.CTG (ISC-enriched organoids [2]; [11]): 0.314
Dose.FC.LYZ.S (ISC-enriched organoids [3]; Dose 0.08 uM, primary screen): 0.187 log 2 fold change
Dose.FC.LYZ.S (ISC-enriched organoids [3]; Dose 0.40 uM, primary screen): 0.199 log 2 fold change
Dose.FC.LYZ.S (ISC-enriched organoids [3]; Dose 2.00 uM, primary screen): 0.113 log 2 fold change
Dose.FC.LYZ.S (ISC-enriched organoids [3]; Dose 10.00 uM, primary screen): 0.223 log 2 fold change
Z.LYZ.S (ISC-enriched organoids [3]; [8]): 1.209
Z.LYZ.S (ISC-enriched organoids [3]; [9]): 1.287
Z.LYZ.S (ISC-enriched organoids [3]; [10]): 0.731
Z.LYZ.S (ISC-enriched organoids [3]; [11]): 1.441
SSMD.LYZ.S (ISC-enriched organoids [3]; [8]): 1.145
SSMD.LYZ.S (ISC-enriched organoids [3]; [9]): 1.157
SSMD.LYZ.S (ISC-enriched organoids [3]; [10]): 0.808
SSMD.LYZ.S (ISC-enriched organoids [3]; [11]): 1.219

Cl.Cl.NC1(c2ccc(-c3nc4ccn5c(=O)[nH]nc5c4cc3-c3ccccc3)cc2)CCC1 [MK-2206 2HCl]
Dose.FC.LYZ.NS (ISC-enriched organoids [1]; Dose 0.08 uM, primary screen): 0.024 log 2 fold change
Z.LYZ.NS (ISC-enriched organoids [1]; [12]): 0.205
Dose.FC.LYZ.NS (ISC-enriched organoids [1]; Dose 0.40 uM, primary screen): −0.063 log 2 fold change
Z.LYZ.NS (ISC-enriched organoids [1]; [13]): −0.550
Dose.FC.LYZ.NS (ISC-enriched organoids [1]; Dose 2.00 uM, primary screen): −0.182 log 2 fold change
Z.LYZ.NS (ISC-enriched organoids [1]; [14]): −1.587
Dose.FC.LYZ.NS (ISC-enriched organoids [1]; Dose 10.00 uM, primary screen): −0.236 log 2 fold change
Z.LYZ.NS (ISC-enriched organoids [1]; [15]): −2.058
SSMD.LYZ.NS (ISC-enriched organoids [1]; [8]): 0.230
SSMD.LYZ.NS (ISC-enriched organoids [1]; [9]): −0.481
SSMD.LYZ.NS (ISC-enriched organoids [1]; [10]): −1.586
SSMD.LYZ.NS (ISC-enriched organoids [1]; [11]): −1.642
Dose.FC.CTG (ISC-enriched organoids [2]; Dose 0.08 uM, primary screen): 0.071 log 2 fold change
Z.CTG (ISC-enriched organoids [2]; [12]): 0.169
Dose.FC.CTG (ISC-enriched organoids [2]; Dose 0.40 uM, primary screen): −0.023 log 2 fold change
Z.CTG (ISC-enriched organoids [2]; [13]): −0.055
Dose.FC.CTG (ISC-enriched organoids [2]; Dose 2.00 uM, primary screen): −0.178 log 2 fold change
Z.CTG (ISC-enriched organoids [2]; [14]): −0.425
Dose.FC.CTG (ISC-enriched organoids [2]; Dose 10.00 uM, primary screen): −0.540 log 2 fold change
Z.CTG (ISC-enriched organoids [2]; [15]): −1.290
SSMD.CTG (ISC-enriched organoids [2]; [8]): 0.242
SSMD.CTG (ISC-enriched organoids [2]; [9]): −0.074
SSMD.CTG (ISC-enriched organoids [2]; [10]): −0.453
SSMD.CTG (ISC-enriched organoids [2]; [11]): −1.730
Dose.FC.LYZ.S (ISC-enriched organoids [3]; Dose 0.08 uM, primary screen): 0.071 log 2 fold change
Dose.FC.LYZ.S (ISC-enriched organoids [3]; Dose 0.40 uM, primary screen): 0.083 log 2 fold change
Dose.FC.LYZ.S (ISC-enriched organoids [3]; Dose 2.00 uM, primary screen): −0.239 log 2 fold change
Dose.FC.LYZ.S (ISC-enriched organoids [3]; Dose 10.00 uM, primary screen): −0.367 log 2 fold change
Z.LYZ.S (ISC-enriched organoids [3]; [8]): 0.460
Z.LYZ.S (ISC-enriched organoids [3]; [9]): 0.536
Z.LYZ.S (ISC-enriched organoids [3]; [10]): −1.546
Z.LYZ.S (ISC-enriched organoids [3]; [11]): −2.370
SSMD.LYZ.S (ISC-enriched organoids [3]; [8]): 0.403
SSMD.LYZ.S (ISC-enriched organoids [3]; [9]): 0.232
SSMD.LYZ.S (ISC-enriched organoids [3]; [10]): −1.686
SSMD.LYZ.S (ISC-enriched organoids [3]; [11]): −1.628

COc1cc(Nc2ncc(F)c(Nc3ccc4c(n3)N(COP(=O)(O)O)C(=O)C(C)(C)O4)n2)cc(OC)c1OC [Fostamatinib (R788)]
Dose.FC.LYZ.NS (ISC-enriched organoids [1]; Dose 0.08 uM, ENR+CD, 6 days): 0.119 log 2 fold change
Z.LYZ.NS (ISC-enriched organoids [1]; [12]): 1.033
Dose.FC.LYZ.NS (ISC-enriched organoids [1]; Dose 0.40 uM, ENR+CD, 6 days): −0.025 log 2 fold change
Z.LYZ.NS (ISC-enriched organoids [1]; [13]): −0.217
Dose.FC.LYZ.NS (ISC-enriched organoids [1]; Dose 2.00 uM, ENR+CD, 6 days): −0.099 log 2 fold change
Z.LYZ.NS (ISC-enriched organoids [1]; [14]): −0.860
Dose.FC.LYZ.NS (ISC-enriched organoids [1]; Dose 10.00 uM, ENR+CD, 6 days): −0.234 log 2 fold change
Z.LYZ.NS (ISC-enriched organoids [1]; [15]): −2.036
Dose.FC.CTG (ISC-enriched organoids [2]; Dose 0.08 uM, ENR+CD, 6 days): 0.232 log 2 fold change
Z.CTG (ISC-enriched organoids [2]; [12]): 0.554
Dose.FC.CTG (ISC-enriched organoids [2]; Dose 0.40 uM, ENR+CD, 6 days): −0.052 log 2 fold change
Z.CTG (ISC-enriched organoids [2]; [13]): −0.123
Dose.FC.CTG (ISC-enriched organoids [2]; Dose 2.00 uM, ENR+CD, 6 days): −0.231 log 2 fold change
Z.CTG (ISC-enriched organoids [2]; [14]): −0.552
Dose.FC.CTG (ISC-enriched organoids [2]; Dose 10.00 uM, ENR+CD, 6 days): −0.881 log 2 fold change
Z.CTG (ISC-enriched organoids [2]; [15]): −2.105
Dose.FC.LYZ.S (ISC-enriched organoids [3]; Dose 0.08 uM, ENR+CD, 6 days): 0.235 log 2 fold change
Dose.FC.LYZ.S (ISC-enriched organoids [3]; Dose 0.40 uM, ENR+CD, 6 days): 0.156 log 2 fold change
Dose.FC.LYZ.S (ISC-enriched organoids [3]; Dose 2.00 uM, ENR+CD, 6 days): −0.015 log 2 fold change
Dose.FC.LYZ.S (ISC-enriched organoids [3]; Dose 10.00 uM, ENR+CD, 6 days): −0.350 log 2 fold change
